The target of one assay is T1, ALK (Homo sapiens, UniProt Q9UM73).
T1 construct: host or cells: baculovirus expression system
Kind of assay: ALK Kinase Assay (ELISA/TRF, PLC-γ substrate). Type of assay: biochemical. Particulars: read-out: ALK Potency. Summed up:
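PLC-γ coat 10 μg/mL in TBS; ALK 30 ng/ml added to start; 37° C, 15 min; Eu-N1 PT66 antibody detection (TRF). IC50: % inhibition vs log10 [cpd], variable-slope sigmoidal fit.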

Another assay addresses T2, JAK2 (Homo sapiens, UniProt O60674).
T2 construct: host or cells: baculovirus expression system
Kind of assay: Recombinant Human JAK2 Kinase Assay (TRF). It is filed as biochemical. Particulars: read-out: JAK2 Potency. In short, it runs like this: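 Baculovirus-expressed JAK2 (15 ng/ml) phosphorylated a biotinylated 15-mer peptide captured on Neutravidin-coated plates, in 20 mM HEPES pH 7.2 with 0.2 μM ATP, 1 mM MnCl2, 0.1% BSA and 2.5% DMSO. Reaction ran 20 min at room temperature; phosphopeptide was detected by time-resolved fluorescence with Eu-N1-labelled PY100 antibody.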

Where [1] appears, read: ALK kinase inhibition, 1 μM ATP.
The mark [2] stands for this setting: JAK2 kinase inhibition, 0.2 μM ATP.

Where two headings read alike, the source gives them in different places.

T1 sequence (Q9UM73 19-1620): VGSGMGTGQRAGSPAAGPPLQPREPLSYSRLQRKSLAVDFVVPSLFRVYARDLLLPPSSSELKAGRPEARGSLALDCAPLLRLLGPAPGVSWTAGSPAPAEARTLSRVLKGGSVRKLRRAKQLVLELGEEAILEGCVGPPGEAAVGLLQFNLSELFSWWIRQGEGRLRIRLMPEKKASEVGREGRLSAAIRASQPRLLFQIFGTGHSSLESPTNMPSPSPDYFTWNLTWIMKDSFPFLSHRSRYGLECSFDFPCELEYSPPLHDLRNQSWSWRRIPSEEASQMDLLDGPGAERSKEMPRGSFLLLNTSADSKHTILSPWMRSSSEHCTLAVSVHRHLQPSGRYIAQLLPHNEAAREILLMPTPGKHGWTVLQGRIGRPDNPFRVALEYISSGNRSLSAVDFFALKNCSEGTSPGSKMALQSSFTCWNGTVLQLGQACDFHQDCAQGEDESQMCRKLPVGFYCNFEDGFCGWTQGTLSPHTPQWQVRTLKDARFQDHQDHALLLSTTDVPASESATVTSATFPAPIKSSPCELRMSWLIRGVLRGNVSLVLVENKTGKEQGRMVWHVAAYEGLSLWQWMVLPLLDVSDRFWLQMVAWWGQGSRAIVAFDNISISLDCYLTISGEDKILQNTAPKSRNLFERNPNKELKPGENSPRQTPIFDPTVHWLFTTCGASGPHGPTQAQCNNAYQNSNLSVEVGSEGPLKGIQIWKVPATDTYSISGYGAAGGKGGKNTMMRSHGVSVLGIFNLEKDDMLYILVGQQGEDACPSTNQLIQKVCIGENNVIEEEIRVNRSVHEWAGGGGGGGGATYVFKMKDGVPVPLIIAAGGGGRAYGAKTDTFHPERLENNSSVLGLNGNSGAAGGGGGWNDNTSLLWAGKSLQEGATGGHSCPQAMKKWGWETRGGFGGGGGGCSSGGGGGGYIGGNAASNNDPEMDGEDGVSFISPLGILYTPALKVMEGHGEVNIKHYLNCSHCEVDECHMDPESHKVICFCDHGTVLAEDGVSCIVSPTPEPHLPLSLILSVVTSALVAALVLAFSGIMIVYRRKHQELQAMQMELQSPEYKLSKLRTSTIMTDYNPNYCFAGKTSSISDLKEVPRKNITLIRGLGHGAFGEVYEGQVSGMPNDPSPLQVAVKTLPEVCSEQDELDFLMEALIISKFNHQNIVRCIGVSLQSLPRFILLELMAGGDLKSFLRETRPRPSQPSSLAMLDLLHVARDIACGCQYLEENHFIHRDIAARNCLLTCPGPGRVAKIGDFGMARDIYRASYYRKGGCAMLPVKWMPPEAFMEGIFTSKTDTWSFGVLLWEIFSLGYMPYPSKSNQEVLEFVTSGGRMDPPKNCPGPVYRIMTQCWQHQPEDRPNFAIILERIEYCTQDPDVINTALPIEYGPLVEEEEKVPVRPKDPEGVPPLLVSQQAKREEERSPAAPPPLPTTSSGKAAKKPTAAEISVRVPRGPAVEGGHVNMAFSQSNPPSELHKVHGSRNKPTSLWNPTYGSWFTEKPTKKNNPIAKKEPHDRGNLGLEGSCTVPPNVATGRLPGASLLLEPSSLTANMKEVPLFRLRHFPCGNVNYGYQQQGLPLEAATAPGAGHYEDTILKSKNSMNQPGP
T2 sequence (O60674 whole entry): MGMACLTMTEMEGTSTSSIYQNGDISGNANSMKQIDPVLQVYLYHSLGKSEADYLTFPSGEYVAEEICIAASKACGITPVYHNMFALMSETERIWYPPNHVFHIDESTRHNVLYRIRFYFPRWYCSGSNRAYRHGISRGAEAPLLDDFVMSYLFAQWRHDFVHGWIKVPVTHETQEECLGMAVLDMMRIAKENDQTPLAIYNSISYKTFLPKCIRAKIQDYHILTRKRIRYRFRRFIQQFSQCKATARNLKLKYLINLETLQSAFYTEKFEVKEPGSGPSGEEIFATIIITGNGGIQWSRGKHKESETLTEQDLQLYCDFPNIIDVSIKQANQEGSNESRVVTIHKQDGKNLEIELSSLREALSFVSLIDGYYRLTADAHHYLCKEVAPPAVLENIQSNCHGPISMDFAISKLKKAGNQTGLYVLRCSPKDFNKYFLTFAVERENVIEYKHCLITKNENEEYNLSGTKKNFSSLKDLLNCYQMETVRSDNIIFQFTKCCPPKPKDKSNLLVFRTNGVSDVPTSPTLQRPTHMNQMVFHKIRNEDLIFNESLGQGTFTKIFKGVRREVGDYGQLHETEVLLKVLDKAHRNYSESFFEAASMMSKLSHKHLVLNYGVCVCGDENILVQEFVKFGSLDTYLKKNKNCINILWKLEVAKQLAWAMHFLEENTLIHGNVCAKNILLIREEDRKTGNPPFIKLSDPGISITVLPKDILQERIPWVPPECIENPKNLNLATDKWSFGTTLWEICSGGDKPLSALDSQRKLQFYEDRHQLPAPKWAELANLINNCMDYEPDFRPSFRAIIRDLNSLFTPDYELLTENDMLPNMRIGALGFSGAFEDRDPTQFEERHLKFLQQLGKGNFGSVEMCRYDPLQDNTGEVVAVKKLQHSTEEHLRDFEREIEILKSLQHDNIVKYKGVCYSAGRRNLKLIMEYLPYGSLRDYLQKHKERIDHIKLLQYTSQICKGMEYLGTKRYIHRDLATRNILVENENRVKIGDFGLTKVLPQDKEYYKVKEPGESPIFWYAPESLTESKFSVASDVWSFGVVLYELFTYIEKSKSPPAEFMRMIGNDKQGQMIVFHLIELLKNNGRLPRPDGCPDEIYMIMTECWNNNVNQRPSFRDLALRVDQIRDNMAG

Consider `COc1cc2c(cc1Nc1ncc3ccc(-c4ccccc4N(C)S(C)(=O)=O)n3n1)CN(C(=O)OC(C)(C)C)C2` [Example 875, 5-{7-[2-(Methanesulfonyl-methyl-amino)-phenyl]-pyrrolo[2,1-f][1,2,4]triazin-2-ylamino}-6-methoxy-1,3-dihydro-isoindole-2-carboxylic acid tert-butyl ester], for which the figures for the IC50 at ALK (setting [1]) and at JAK2 (setting [2]) were 1000 to 10000 nM and above 10000 nM, respectively.
Take `COc1cc(Cn2ccnc2C)ccc1Nc1ncc2ccc(-c3ccccc3N(C)S(C)(=O)=O)n2n1` [Example 505, N-(2-{2-[2-Methoxy-4-(2-methyl-imidazol-1-ylmethyl)-phenylamino]-pyrrolo[2,1-f][1,2,4]triazin-7-yl}-phenyl)-N-methyl-methanesulfonamide]: the figures for the IC50 at ALK (setting [1]) and at JAK2 (setting [2]) were below 100 nM and 1000 to 10000 nM, respectively.
For `CC(C)(C)NS(=O)(=O)c1cccc(-c2ccc3cnc(Nc4ccc(-c5cnco5)cc4)nn23)c1` [Example 1402, N-tert-Butyl-3-[2-(4-oxazol-5-yl-phenylamino)-pyrrolo[2,1-f][1,2,4]triazin-7-yl]-benzenesulfonamide], the IC50 on ALK (ALK Kinase Inhibition) is 1000 to 10000 nM; on JAK2 (JAK2 Kinase Inhibition) it was below 100 nM.
For `COc1ccc(Cl)cc1-c1ccc2cnc(Nc3cccc(C(=O)N4CCOCC4)c3)nn12` [Example 328, {3-[7-(5-Chloro-2-methoxy-phenyl)-pyrrolo[2,1-f][1,2,4]triazin-2-ylamino]-phenyl}-morpholin-4-yl-methanone], in that order: 100 to 1000 nM and below 100 nM.
Take `CN1C2CCC1CC(c1ccc(Nc3ncc4ccc(-c5cccc(S(=O)(=O)NC(C)(C)C)c5)n4n3)cc1)C2` (stereo not shown) [Example 943, N-tert-Butyl-3-{2-[4-(8-methyl-8-aza-bicyclo[3.2.1]oct-3-yl)-phenylamino]-pyrrolo[2,1-f][1,2,4]triazin-7-yl}-benzenesulfonamide]: the IC50 at ALK (setting [1]) was 100 to 1000 nM; on JAK2 (setting [2]), below 100 nM.
The like results for `COc1ccccc1-c1ccc2cnc(Nc3ccc4c(c3)CN(CC(N)=O)CC4)nn12` [Example 987, 2-{7-[7-(2-Methoxy-phenyl)-pyrrolo[2,1-f][1,2,4]triazin-2-ylamino]-3,4-dihydro-1H-isoquinolin-2-yl}-acetamide] were, in that order, 100 to 1000 nM and below 100 nM.
For `CN1C(=O)COc2cc(Nc3ncc4ccc(-c5cccc(NS(C)(=O)=O)c5)n4n3)ccc21` [Example 638, N-{3-[2-(4-Methyl-3-oxo-3,4-dihydro-2H-benzo[1,4]oxazin-7-ylamino)-pyrrolo[2,1-f][1,2,4]triazin-7-yl]-phenyl}methanesulfonamide], in that order: 100 to 1000 nM and below 100 nM.
Consider `COc1ccccc1-c1ccc2cnc(Nc3ccc4c(c3OC)CCC(N3CCOCC3)CC4)nn12` (stereo not shown) [Example 1452, (1-Methoxy-7-morpholin-4-yl-6,7,8,9-tetrahydro-5H-benzo cyclohepten-2-yl)-[7-(2-methoxy-phenyl)-pyrrolo[2,1-f][1,2,4]triazin-2-yl]-amine], for which the IC50 at ALK (ALK Kinase Inhibition) was below 100 nM; at JAK2 (JAK2 Kinase Inhibition) it was 100 to 1000 nM.
In the case of `COc1cc(CN2CCN(CC(O)CF)CC2)ccc1Nc1ncc2ccc(-c3ccccc3OC)n2n1` (stereo not shown) [Example 1243, 1-Fluoro-3-(4-{3-methoxy-4-[7-(2-methoxy-phenyl)-pyrrolo[2,1-f][1,2,4]triazin-2-ylamino]-benzyl}-piperazin-1-yl)-propan-2-ol], the results for the IC50 on ALK (setting [1]) and at JAK2 (setting [2]) were below 100 nM and 100 to 1000 nM, respectively.
As for `C[C@@H](O)CN1CCN(c2cccc(Nc3ncc4ccc(-c5ccc(S(C)(=O)=O)cc5)n4n3)c2)CC1` [Example 217, (R)-1-(4-{3-[7-(4-Methanesulfonyl-phenyl)-pyrrolo[2,1-f][1,2,4]triazin-2-ylamino]-phenyl}-piperazin-1-yl)-propan-2-ol], the values for the IC50 on ALK (ALK Kinase Inhibition) and on JAK2 (JAK2 Kinase Inhibition) were 100 to 1000 nM and below 100 nM, respectively.
On to `COc1ccccc1-c1ccc2cnc(Nc3ccc(C4CCN(CC(N)=O)CC4)c(OC)c3)nn12` [Example 912, 2-(4-{2-Methoxy-4-[7-(2-methoxy-phenyl)-pyrrolo[2,1-f][1,2,4]triazin-2-ylamino]-phenyl}-piperidin-1-yl)-acetamide], for which the IC50 at ALK (setting [1]) and at JAK2 (setting [2]) was below 100 nM throughout.
Turning to `COCCOc1ncc2ccc(-c3ccc(S(C)(=O)=O)cc3)n2n1` [Example 197, 7-(4-Methanesulfonyl-phenyl)-2-(2-methoxy-ethoxy)-pyrrolo[2,1-f][1,2,4]triazine], the IC50 at ALK (ALK Kinase Inhibition) is above 10000 nM; on JAK2 (JAK2 Kinase Inhibition), 100 to 1000 nM.
For `Cc1cc(Nc2ncc3ccc(-c4cccc(S(=O)(=O)NC(C)(C)C)c4)n3n2)ccc1C1CCN(C)CC1` [Example 940, N-tert-Butyl-3-{2-[3-methyl-4-(1-methyl-piperidin-4-yl)-phenylamino]-pyrrolo[2,1-f][1,2,4]triazin-7-yl}-benzenesulfonamide], the IC50 at ALK (setting [1]) and at JAK2 (setting [2]) was below 100 nM throughout.
`CS(=O)(=O)Nc1cccc(-c2ccc3cnc(Nc4ccc(C5CCN(CC(N)=O)CC5)cc4)nn23)c1` [Example 956, 2-(4-{4-[7-(3-Methanesulfonylamino-phenyl)-pyrrolo[2,1-f][1,2,4]triazin-2-ylamino]-phenyl}-piperidin-1-yl)-acetamide]: the IC50 on ALK (setting [1]) was 100 to 1000 nM; on JAK2 (setting [2]), below 100 nM.
`CN1CCN(c2ccc(Nc3ncc4ccc(C5=CCN(S(C)(=O)=O)CC5)n4n3)cc2)CC1` [Example 1139, [7-(1-Methane sulfonyl-1,2,3,6-tetrahydro-pyridin-4-yl)-pyrrolo[2,1-f][1,2,4]triazin-2-yl]-[4-(4-methyl-piperazin-1-yl)-phenyl]-amine]: the IC50 at ALK (setting [1]) is 100 to 1000 nM; at JAK2 (setting [2]), below 100 nM.
The like results for `CN1CCN(c2ccc(Nc3ncc4ccc(-c5cccc(S(C)(=O)=O)c5)n4n3)cn2)CC1` [Example 1123, [7-(3-Methanesulfonyl-phenyl)-pyrrolo[2,1-f][1,2,4]triazin-2-yl]-[6-(4-methyl-piperazin-1-yl)-pyridin-3-yl]-amine] were, in that order, 100 to 1000 nM and below 100 nM.
Regarding `CS(=O)(=O)Nc1ccncc1-c1ccc2cnc(Nc3ccc(N4CCOCC4)cc3)nn12` [Example 1219, N-{3-[2-(4-Morpholin-4-yl-phenylamino)-pyrrolo[2,1-f][1,2,4]triazin-7-yl]-pyridin-4-yl}-methanesulfonamide], the IC50 on ALK (setting [1]) fell in the range of 1000 to 10000 nM; at JAK2 (setting [2]), 100 to 1000 nM.
Turning to `CN1CCN(c2ccc(Nc3ncc4ccc(-c5ccccc5S(C)(=O)=O)n4n3)cc2)CC1` [Example 406, [7-(2-Methanesulfonyl-phenyl)-pyrrolo[2,1-f][1,2,4]triazin-2-yl]-[4-(4-methyl-piperazin-1-yl)-phenyl]-amine], the values for the IC50 at ALK (ALK Kinase Inhibition) and on JAK2 (JAK2 Kinase Inhibition) were 1000 to 10000 nM and below 100 nM, respectively.
Turning to `COc1ccc(-c2ccc3cnc(Nc4ccc5c(c4)CCN(C)C5)nn23)cn1` [Example 919, [7-(6-Methoxy-pyridin-3-yl)-pyrrolo[2,1-f][1,2,4]triazin-2-yl]-(2-methyl-1,2,3,4-tetrahydro-isoquinolin-6-yl)-amine], the IC50 at ALK (setting [1]) was 100 to 1000 nM; at JAK2 (setting [2]) it was below 100 nM.
For the molecule `CC(C)(C)NS(=O)(=O)c1cccc(-c2ccc3cnc(Nc4ccc5cn(CCN6CCOCC6)nc5c4)nn23)c1` [Example 1344, N-tert-Butyl-3-{2-[2-(2-morpholin-4-yl-ethyl)-2H-indazol-6-ylamino]-pyrrolo[2,1-f][1,2,4]triazin-7-yl}-benzenesulfonamide], the IC50 on ALK (setting [1]) was 100 to 1000 nM; on JAK2 (setting [2]) it was below 100 nM.
For `COc1ccccc1-c1cc2cnc(Nc3ccc(N4CCN(C)CC4)cc3)nn2c1` [Example 1156, [6-(2-Methoxy-phenyl)-pyrrolo[2,1-f][1,2,4]triazin-2-yl]-[4-(4-methyl-piperazin-1-yl)-phenyl]-amine], the IC50 on ALK (setting [1]) was in the range of 1000 to 10000 nM; at JAK2 (setting [2]) it was 100 to 1000 nM.
On to `COc1cncc(-c2ccc3cnc(Nc4ccc5c(c4)CCN(CC(=O)N(C)C)CC5)nn23)c1` [Example 1575], for which the IC50 at ALK (ALK Kinase Inhibition) is 100 to 1000 nM; on JAK2 (JAK2 Kinase Inhibition), below 100 nM.
The like results for `CC1(C)CCC(=O)Nc2cc(Nc3ncc4ccc(-c5cccc(NS(C)(=O)=O)c5)n4n3)ccc21` [Example 381, N-{3-[2-(5,5-Dimethyl-2-oxo-2,3,4,5-tetrahydro-1H-1-benzazepin-8-ylamino)-pyrrolo[2,1-f][1,2,4]triazin-7-yl]-phenyl}-methanesulfonamide] were, in that order, 100 to 1000 nM and below 100 nM.
With `COc1ccccc1-c1ccc2cnc(Nc3ccn(CC(=O)N4CCOCC4)n3)nn12` [Example 1111, 2-{3-[7-(2-Methoxy-phenyl)-pyrrolo[2,1-f][1,2,4]triazin-2-ylamino]-pyrazol-1-yl}-1-morpholin-4-yl-ethanone], the figures for the IC50 at ALK (setting [1]) and on JAK2 (setting [2]) were 100 to 1000 nM and below 100 nM, respectively.
The like results for `CC(=O)Nc1cc(Nc2ncc3ccc(-c4cccc(S(=O)(=O)NC(C)(C)C)c4)n3n2)ccc1Cl` [Example 888, N-{5-[7-(3-tert-Butylsulfamoyl-phenyl)-pyrrolo[2,1-f][1,2,4]triazin-2-ylamino]-2-chloro-phenyl}-acetamide] were, in that order, 100 to 1000 nM and below 100 nM.
For `COc1ccccc1-c1ccc2cnc(Nc3ccc(N4CCCC4)cc3)nn12` [Example 169, [7-(2-Methoxy-phenyl)-pyrrolo[2,1-f][1,2,4]triazin-2-yl]-(4-pyrrolidin-1-yl-phenyl)-amine], the IC50 on ALK (ALK Kinase Inhibition) was 100 to 1000 nM; on JAK2 (JAK2 Kinase Inhibition), below 100 nM.

(Values after patent US8471005B2 (Cephalon, Inc., priority 2008, dated 2013).)
